# Reference: US20020086893A1, “Medicament” (SmithKline Beecham p.l.c., priority 1990, published 2002)
# Structures can show the parent of a compound that is named as a salt.
row,melting point,SMILES
1,118 to 120 °C,"CCCCc1ncc(CC(Cc2ccccc2)C(=O)O)n1Cc1ccccc1Cl (stereo not drawn) (as salt: hydrochloride) [Example 2, 3-[2-n-Butyl-1-{(2-chlorophenyl)methyl}-1H-imidazol-5-yl]-2-benzylpropanoic Acid]"
2,178 to 181 °C,"CCCSc1ncc(C[C@H](NC(=O)CCC)C(=O)O)n1Cc1ccccc1Cl [Example 1, 3-[(2-Chlorophenyl)methyl]-2-propylthio-N-butyrylhistidine]"
3,254 to 255 °C,"CCCCc1nc2cc(Br)cc(C(=O)O)c2n1Cc1ccccc1Cl [Example 4, 5-Bromo-2-n-butyl-1-(2-chlorophenyl)methyl-1H-benzimidazole-7-carboxylic Acid]"
